Measured values from EP0900207B1, “PYRAZINONE THROMBIN INHIBITORS” (MERCK & CO., INC., priority 1996, dated 1997).

Tested on: Male Sprague-Dawley rats
Assay: Rat ferric chloride assay of thrombotic occlusion of the carotid artery
Format: in vivo
Settings: continuous intravenous infusion 10 µg/kg/min
Protocol: Studies of 3-(2-Phenylethylamino)-6-methyl-1-(2-amino-6-methyl-5-methylenecarboxamidomethylpyridinyl)-2-pyridinone using the following rat ferric chloride assay substantially as described in Thrombosis Research, No. 60, page 269(1990) by Kurtz et al were used to determine in vivo activity of the thrombin inhibitors of the invention. Male Sprague-Dawley rats (body weights 200-350 grams) were anesthetized with dial-urethane solution (0.1 ml/100 gm body weight i.p.), and a lateral tail vein was cannulated with a 23 gauge needle connected to a 12 inch length of PE50 tubing. The tubing was attached to a 3-way valve by a tubing adapter. Saline (control) or test compound, as appropriate, was administered via the tail vein catheter. A tracheostomy was performed with a 0.75 inch length of PE205 tubing. The right carotid artery is exposed and a 1.3 mm diameter Doppler flow probe was placed on the vessel. Body temperature was maintained at 37°C using a heat lamp.
6 rats were randomized to continuous intravenous infusions of saline or test compound administered via the tail vein. Test compound was administered at a rate of 10 µg/kg/min. Treatment infusions were initiated 60 min before the placement of a 3 mm square piece of Whatman No. 1 filter paper saturated with 35% FeCl3 onto the exposed carotid artery distal to the flow probe. […]

For “3-(2-Phenylethylamino)-6-methyl-1-(2-amino-6-methyl-5-methylenecarboxamidomethylpyridinyl)-2-pyridinone [Example LXXXII]”, the “rats showing evidence of thrombotic occlusion” value (observed up to 90 minutes after application of FeCl3) was “None” and the “efficacy against thrombotic occlusion” value (started 60 min before 35% FeCl3 on carotid artery) was “fully efficacious”.
